“Also recorded” adds a separate entry of the source.
Legend:
[1] = Six-month stability study of topical gel formulations including Compound 1.002; assay type: physicochemical; settings: 40° C./75% RH
Procedure: Unless otherwise indicated, a HPLC method was used to determine the content of Compound 1.002 and impurities; ASTM D 1544 was used as the standard test method for color of gel formulations; a gas chromatographic method was used to determine the content of oleic acid; and Brookfield viscometer was used to measure viscosity (cP) of gel formulations.
(§1) The gel formulation in HPLC glass vials was subjected to stability study at 40° C./75%0 RH for 6 months. A purity of Compound 1.002 on month 0, 1, 3, and 6 month at 40° C./75% RH was determined by HPLC. The detected impurity of Compound 1.002 appears to be the hydrolysis product, as MTPP. Table 21 represents stability data of Compound 1.002 in the topical formulation having 1000 oleic acid. […]
as §1, with “Lablabo Amcor Foil 18 mL containers” for “HPLC glass vials”, “C./75%” for “C./75%0”, “3, 4, 5,” for “3,”, “25” for “21”, “10%” for “1000”, “alcohol and 40% DPG.” for “acid.”

[2] = Human skin permeation from liquid reservoir transdermal patch over 7 days; assay type: in vitro ADME; settings: liquid reservoir patch with Table 11 gel
Procedure: Liquid reservoir transdermal patches of FIG. 6 were prepared and used for the study of delivery of Compound 1.002. The transdermal patches were used to deliver Compound 1.002 in vitro through human skin for 7 days from a single patch application. The following gel formulation having composition as shown in Table 11 was prepared according to Example 8 and incorporated into the reservoir patch system.
Patches using the gel formulation having compositions of Table 11 were prepared in accordance with the process shown in FIG. 7. The patch was 1.8 cm^2 in size containing 0.3 mL of the gel formulation. The backing layer of the patch was Scotchpak® 9723, which is a laminate of polyester and polyethylene commonly used in transdermal patches. The controlling membrane was SOLUPOR® 10P05A, which is a highly porous (up to 90% porous) Ultra High Molecular Weight Polyethylene membrane with controlled pore size. The pressure sensitive adhesive in contact with the human skin was […], which is a non-crosslinked acrylate copolymer with no functional groups.
Compound 1.002 was confirmed to metabolize to MTPP by estarases as it permeates through the human skin.

[3] = In vitro human skin permeation study of topical gel formulations (Franz diffusion cells); assay type: in vitro ADME
[4] = Table 20 gel (10% oleic acid, DPG), HPLC glass vials, month 0
[5] = Table 20 gel (10% oleic acid, DPG), HPLC glass vials, month 1
[6] = Table 20 gel (10% oleic acid, DPG), HPLC glass vials, month 3
[7] = Table 20 gel (10% oleic acid, DPG), HPLC glass vials, month 6
[8] = Table 24 gel (10% oleyl alcohol, 40% DPG), Lablabo Amcor Foil 18 mL containers, month 0
[9] = Table 24 gel (10% oleyl alcohol, 40% DPG), Lablabo Amcor Foil 18 mL containers, month 1
[10] = Table 24 gel (10% oleyl alcohol, 40% DPG), Lablabo Amcor Foil 18 mL containers, month 3
[11] = Table 24 gel (10% oleyl alcohol, 40% DPG), Lablabo Amcor Foil 18 mL containers, month 4
[12] = Table 24 gel (10% oleyl alcohol, 40% DPG), Lablabo Amcor Foil 18 mL containers, month 5
[13] = Table 24 gel (10% oleyl alcohol, 40% DPG), Lablabo Amcor Foil 18 mL containers, month 6
[14] = Study-1, Example 8 gel, human skin, Donor 1, 2 h
[15] = Study-1, Example 8 gel, human skin, Donor 1, 4 h
[16] = Study-1, Example 8 gel, human skin, Donor 1, 8 h
[17] = Study-1, Example 8 gel, human skin, Donor 1, 24 h
[18] = Study-1, Example 8 gel, human skin, Donor 1, 48 h
[19] = Study-1, Example 8 gel, human skin, Donor 2, 2 h
[20] = Study-1, Example 8 gel, human skin, Donor 2, 8 h
[21] = Study-1, Example 8 gel, human skin, Donor 2, 24 h
[22] = Study-1, Example 8 gel, human skin, Donor 2, 48 h
[23] = Study-1, Example 8 gel, human skin, Donor 3, 4 h
[24] = Study-1, Example 8 gel, human skin, Donor 3, 8 h
[25] = Study-1, Example 8 gel, human skin, Donor 3, 24 h
[26] = Study-1, Example 8 gel, human skin, Donor 3, 48 h
[27] = Study-2, gel saturated at 120 mg/mL, human skin, 2 h
[28] = Study-2, gel saturated at 120 mg/mL, human skin, 4 h
[29] = Study-2, gel saturated at 120 mg/mL, human skin, 8 h
[30] = Study-2, gel saturated at 120 mg/mL, human skin, 24 h
[31] = Study-2, gel saturated at 120 mg/mL, human skin, 48 h

CC(=O)Oc1cccc(-c2nc(N3CCOCC3)c3sccc3n2)c1 [Compound 1.002, 3-(4-Morpholinothieno[3,2-d]pyrimidin-2-yl)phenyl Acetate]
Appearance [1, 4]: Clear,; also recorded: no crystals | Compound 1.002 Relative Purity [1, 4]: 100.0% | Compound 1.002 content [1, 4]: 106.6 mg/mL | MTPP (Relative Purity) [1, 4]: 0.0% | Other impurity (Relative Purity) [1, 4]: 0.0% | Viscosity [1, 4]: 11,800 cP | Appearance [1, 5]: Clear,; also recorded: no crystals | Compound 1.002 Relative Purity [1, 5]: 98.4% | Compound 1.002 content [1, 5]: 106.0 mg/mL | MTPP (Relative Purity) [1, 5]: 1.2% | Other impurity (Relative Purity) [1, 5]: 0.4% | Viscosity [1, 5]: 12,600 cP | Appearance [1, 6]: Clear,; also recorded: no crystals | Compound 1.002 Relative Purity [1, 6]: 97.5% | Compound 1.002 content [1, 6]: 107.0 mg/mL | MTPP (Relative Purity) [1, 6]: 2.5% | Other impurity (Relative Purity) [1, 6]: 0.0% | Viscosity [1, 6]: 11,780 cP | Appearance [1, 7]: Clear,; also recorded: no crystals | Compound 1.002 Relative Purity [1, 7]: 95.1% | Compound 1.002 content [1, 7]: 109.1 mg/mL | MTPP (Relative Purity) [1, 7]: 4.9% | Other impurity (Relative Purity) [1, 7]: 0.0% | Viscosity [1, 7]: 12,760 cP | Compound 1.002 Relative Purity [1, 8]: 100% | Compound 1.002 content [1, 8]: 65.9 mg/mL | MTPP (Relative Purity) [1, 8]: 0.0% | Visual Appearance [1, 8]: no crystals | Compound 1.002 Relative Purity [1, 9]: 98.9% | Compound 1.002 content [1, 9]: 66.5 mg/mL | MTPP (Relative Purity) [1, 9]: 1.1% | Visual Appearance [1, 9]: no crystals | Compound 1.002 Relative Purity [1, 10]: 99.0% | Compound 1.002 content [1, 10]: 65.9 mg/mL | MTPP (Relative Purity) [1, 10]: 1.0% | Visual Appearance [1, 10]: no crystals | Compound 1.002 Relative Purity [1, 11]: 97.0% | Compound 1.002 content [1, 11]: 66.5 mg/mL | MTPP (Relative Purity) [1, 11]: 3.0% | Visual Appearance [1, 11]: no crystals | Compound 1.002 Relative Purity [1, 12]: 97.3% | Compound 1.002 content [1, 12]: 67.8 mg/mL | MTPP (Relative Purity) [1, 12]: 2.7% | Visual Appearance [1, 12]: no crystals | Compound 1.002 Relative Purity [1, 13]: 90.0% | Compound 1.002 content [1, 13]: 51.1 mg/mL | MTPP (Relative Purity) [1, 13]: 10.0% | Visual Appearance [1, 13]: no crystals | Compound 1.002 metabolized to MTPP after permeating through the human skin [2]: approximately 85% | Effect of oleic acid amount on flux through human skin ([3]; Example 15, gels with 1%, 2%, 5% and 10% oleic acid, FIG. 13): increases as the increase of the amount of oleic acid | Metabolism of Compound 1.002 to MTPP ([3]; Example 15, gels with 1%, 2%, 5% and 10% oleic acid, human skin): Majority of Compound 1.002 metabolized to MTPP | Share of total permeated (MTPP+Compound 1.002) that was Compound 1.002 ([3]; Example 16, three formulations, 24 hour time point): about 10% | Cumulative permeation, Cmpd. 1.002 [3, 14]: 0.00 μg/cm^2 | Hydrolysis of Cmpd. 1.002 to MTPP [3, 14]: 100% | Cumulative permeation, Cmpd. 1.002 [3, 15]: 0.00 μg/cm^2 | Hydrolysis of Cmpd. 1.002 to MTPP [3, 15]: 100% | Cumulative permeation, Cmpd. 1.002 [3, 16]: 0.00 μg/cm^2 | Hydrolysis of Cmpd. 1.002 to MTPP [3, 16]: 100% | Cumulative permeation, Cmpd. 1.002 [3, 17]: 13.47 μg/cm^2 | Hydrolysis of Cmpd. 1.002 to MTPP [3, 17]: 82.9% | Cumulative permeation, Cmpd. 1.002 [3, 18]: 85.01 μg/cm^2 | Hydrolysis of Cmpd. 1.002 to MTPP [3, 18]: 58.5% | Cumulative permeation, Cmpd. 1.002 [3, 19]: 0.00 μg/cm^2 | Hydrolysis of Cmpd. 1.002 to MTPP [3, 19]: 100% | Cumulative permeation, Cmpd. 1.002 ([3]; Study-1, Example 8 gel, human skin, Donor 2, 4 h): 0.00 μg/cm^2 | Cumulative permeation, Cmpd. 1.002 [3, 20]: 1.09 μg/cm^2 | Hydrolysis of Cmpd. 1.002 to MTPP [3, 20]: 87.0% | Cumulative permeation, Cmpd. 1.002 [3, 21]: 15.44 μg/cm^2 | Hydrolysis of Cmpd. 1.002 to MTPP [3, 21]: 83.6% | Cumulative permeation, Cmpd. 1.002 [3, 22]: 82.83 μg/cm^2 | Hydrolysis of Cmpd. 1.002 to MTPP [3, 22]: 59.6% | Cumulative permeation, Cmpd. 1.002 [3, 23]: 0.00 μg/cm^2 | Hydrolysis of Cmpd. 1.002 to MTPP [3, 23]: 100% | Cumulative permeation, Cmpd. 1.002 [3, 24]: 0.00 μg/cm^2 | Hydrolysis of Cmpd. 1.002 to MTPP [3, 24]: 100% | Cumulative permeation, Cmpd. 1.002 [3, 25]: 5.18 μg/cm^2 | Hydrolysis of Cmpd. 1.002 to MTPP [3, 25]: 92.0% | Cumulative permeation, Cmpd. 1.002 [3, 26]: 70.87 μg/cm^2 | Hydrolysis of Cmpd. 1.002 to MTPP [3, 26]: 65.5% | Amount of permeated Compound 1.002 metabolized to MTPP ([3]; Study-1 and Study-2, human skin, first 24-hour period): 82%-100% | Cumulative permeation, Cmpd. 1.002 [3, 27]: 0.00 μg/cm^2 | Hydrolysis of Cmpd. 1.002 to MTPP [3, 27]: 100% | Cumulative permeation, Cmpd. 1.002 [3, 28]: 0.00 μg/cm^2 | Hydrolysis of Cmpd. 1.002 to MTPP [3, 28]: 100% | Cumulative permeation, Cmpd. 1.002 [3, 29]: 0.00 μg/cm^2 | Hydrolysis of Cmpd. 1.002 to MTPP [3, 29]: 100% | Cumulative permeation, Cmpd. 1.002 [3, 30]: 0.00 μg/cm^2 | Hydrolysis of Cmpd. 1.002 to MTPP [3, 30]: 100% | Cumulative permeation, Cmpd. 1.002 [3, 31]: 78.10 μg/cm^2 | Hydrolysis of Cmpd. 1.002 to MTPP [3, 31]: 83.9% | Permeation through human skin relative to MTPP ([3]; Study-3, saturated gel formulations, 48 hour period, FIG. 4): about 6 times
